Literature values as cited in patent publication US20210069187A1, “Stable pharmaceutical composition of Selexipag” (RK Pharma Solutions LLC, priority 2019, published 2021).

Columns and labels:
[1] = not given; remark: listed apart in the source

## CC(C)N(CCCCOCC(=O)NS(C)(=O)=O)c1cnc(-c2ccccc2)c(-c2ccccc2)n1 [Selexipag, 2-{4-[N-(5,6-diphenylpyrazin-2-yl)-N-isopropylamino]butyloxy}-N-(methylsulfonyl)acetamide]
other
  solubility in water: practically insoluble
[1]
  stability in the solid state: very stable
[1]; solid state
  hygroscopicity: not hygroscopic
  light sensitivity: not light sensitive
